In one test the target is T1, NAMPT (Homo sapiens, UniProt P43490).
T1 construct: His tag; host or cells: E. coli
In words: Biochemical inhibition assay: NAMPT enzymatic reaction, NMN quantified by mass spectrometry. As for the experimental part: Biochemical Inhibition Assay
NAMPT Protein Purification
Recombinant His-tagged NAMPT was produced in E. coli cells, purified over a Ni column, and further purified over a size-exclusion column by XTAL Biostructures.
The NAMPT Enzymatic Reaction
The NAMPT enzymatic reactions were carried out in Buffer A (50 mM Hepes pH 7.5, 50 mM NaCl, 5 mM MgCl2, and 1 mM THP) in 96-well V-bottom plates. The compound titrations were performed in a separate dilution plate by serially diluting the compounds in DMSO to make a 100× stock. […] The compound and enzyme mix was incubated for 15 minutes at room temperature, then 10 μL of 10× substrate and co-factors in Buffer A were added to the test well to make a final concentration of 1 μM NAM, 100 μM 5-Phospho-D-ribose 1-diphosphate (PRPP), and 2.5 mM Adenosine 5′-triphosphate (ATP). The reaction was allowed to proceed for 30 minutes at room temperature, then was quenched with the addition of 11 μL of a solution of formic acid and L-Cystathionine to make a final concentration of 1% formic acid and 10 μM L-Cystathionine. Background and signal strength was determined by addition (or non-addition) of a serial dilution of NMN to a pre-quenched enzyme and cofactor mix.
A mass spectrometry-based assay was used to measure the NAMPT reaction product (NMN) and the internal control (L-Cystathionine). NMN and L-Cystathionine were detected using the services of Biocius Lifesciences with the RapidFire system. In short, the NMN and L-Cystathionine are bound to a graphitic carbon cartridge in 0.1% formic acid, eluted in 30% acetonitrile buffer, and injected into a Sciex 4000 mass spectrometer. The components of the sample were ionized with electrospray ionization and the positive ions were detected. […] The fragments are quantified and the analyzed by the following method.
First the NMN signal is normalized to the L-Cystathionine signal by dividing the NMN signal by the L-Cystathionine signal for each well. The signal from the background wells are averaged and subtracted from the test plates. […] IC50s are Determined Using Excel and this Formula.

Another test has as its system A2780 cells. In words: In-vitro cell proliferation assay (SRB), A2780 cells. The format is cell-based. As for the experimental part: In-Vitro Cell Proliferation Assay
After overnight incubation at 37° C. and 5% CO2, the compound titrations were performed in a separate dilution plate by serially diluting the compounds in DMSO to make a 1000× stock. The compounds were then further diluted to 10× final concentration in culture media, whereupon 20 μL of each dilution was added to the plated cells with controls (e.g. DMSO and blank) to make a final volume of 200 μL. The final DMSO concentration in each well was 0.1%. The plates were then incubated for 72 hours at 37° C. in a 5% CO2 incubator. The number of viable cells was then assessed using sulforhodamine B (SRB) assay. Cells were fixed at 4° C. for 1 hour with the addition of 50 μL 30% trichloroacetic acid (TCA) to make a final concentration of 6% TCA. The plates were washed four times with H2O and allowed to dry for at least 1 hour, whereupon 100 μL of a 4% SRB in 1% acetic acid solution was added to each well and incubated at room temperature for at least 30 minutes. The plates were then washed three times with 1% acetic acid, dried, and treated with 100 μL of 10 mM Tris-Base solution. The plates were then read in a microplate reader at an absorbance of 570 nm. Background was generated on a separate plate with media only.
Method for Determining % Inhibition
First, the signals from the background plate are averaged, then the background was subtracted from the test plates.
wherein X denotes the compound concentration 1, Y denotes the compound concentration 2, XX denotes the % inhibition at compound concentration 1 (X), and YY denotes the % inhibition at compound concentration 2 (Y).

The mark [1] stands for this setting: NAMPT enzymatic assay, read-out: Biochem IC50.
Setting [2] is: Homo sapiens, A2780, 72 h, A2780 cells, 72 hours, SRB, read-out: A2780 IC50.

Read-outs that look alike come from different tables or passages of the source.

T1 sequence (P43490 whole entry): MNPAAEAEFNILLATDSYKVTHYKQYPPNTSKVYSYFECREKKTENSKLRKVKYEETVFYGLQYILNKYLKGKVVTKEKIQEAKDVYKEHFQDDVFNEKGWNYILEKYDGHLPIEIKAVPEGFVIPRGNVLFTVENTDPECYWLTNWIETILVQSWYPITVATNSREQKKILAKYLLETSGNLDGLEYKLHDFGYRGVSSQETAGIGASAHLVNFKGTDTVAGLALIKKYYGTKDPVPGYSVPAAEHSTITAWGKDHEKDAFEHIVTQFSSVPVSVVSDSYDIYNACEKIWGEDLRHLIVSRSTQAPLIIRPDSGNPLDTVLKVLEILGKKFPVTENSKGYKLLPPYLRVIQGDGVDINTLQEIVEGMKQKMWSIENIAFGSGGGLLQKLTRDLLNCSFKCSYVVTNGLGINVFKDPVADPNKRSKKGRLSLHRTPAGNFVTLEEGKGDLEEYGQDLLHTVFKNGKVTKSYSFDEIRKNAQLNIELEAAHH

In general, IC50 refers to the concentration that inhibits the measured activity by half. As for `O=C(NCc1ccc(S(=O)(=O)c2ccc(C(F)(F)F)cc2OCC(F)(F)F)cc1)c1cc2cnccc2[nH]1`, the results for the IC50 at NAMPT (setting [1]) and in the test on A2780 cells (setting [2]) were 0.009 µM and 0.001 µM, respectively.

Take `O=C(NCc1ccc(S(=O)(=O)c2cc(C(F)(F)F)ccc2OCc2ccccc2)cc1)c1cnc2nccn2c1`: the IC50 at NAMPT (setting [1]) is 0.0332 µM; in the test on A2780 cells (setting [2]), 0.1 to 1 µM.

On to `O=C(NCc1ccc(S(=O)(=O)c2cc(C(F)(F)F)ccc2OCc2ccccc2)cc1)c1cc2cnccc2[nH]1`, for which the values for the IC50 on NAMPT (setting [1]) and in the test with A2780 cells (setting [2]) were 0.13 µM and 0.0259 µM, respectively. For the compound `CN(C)C(=O)c1ccccc1S(=O)(=O)c1ccc(CNC(=O)c2cc3ccncc3s2)cc1`, the IC50 at NAMPT (setting [1]) and in the test with A2780 cells (setting [2]) was 0.1 to 1 µM in each case. `CN(C)C(=O)c1ccccc1S(=O)(=O)c1ccc(CNC(=O)c2cc3ccncc3o2)cc1`: the results for the IC50 on NAMPT (setting [1]) and in the test with A2780 cells (setting [2]) were 0.1 to 1 µM and 1 to 10 µM, respectively. `CCOCc1ccccc1S(=O)(=O)c1ccc(CNC(=O)c2cc3ccncc3o2)cc1`: the IC50 on NAMPT (setting [1]) worked out at 0.0133 µM; in the test with A2780 cells (setting [2]), 0.026 µM.

Consider `CCOCc1ccccc1S(=O)(=O)c1ccc(CNC(=O)c2cnc3nccn3c2)cc1`, for which the IC50 at NAMPT (setting [1]) was determined as 0.0037 µM; in the test on A2780 cells (setting [2]) it was 0.0396 µM. In the same order, the values of `CCOCc1ccccc1S(=O)(=O)c1ccc(CNC(=O)c2cc3cnccc3[nH]2)cc1` are 0.0185 µM and 0.0067 µM.

In the case of `CCOCc1ccccc1S(=O)(=O)c1ccc(CNC(=O)c2cnc3[nH]ncc3c2)cc1`, the IC50 at NAMPT (setting [1]) came to 0.052 µM; in the test on A2780 cells (setting [2]), 0.0612 µM. As to `CNS(=O)(=O)c1ccccc1S(=O)(=O)c1ccc(CNC(=O)c2cnc3nccn3c2)cc1`, the IC50 at NAMPT (setting [1]) was 0.0304 µM; in the test on A2780 cells (setting [2]), 1 to 10 µM.

In the case of `CNS(=O)(=O)c1ccccc1S(=O)(=O)c1ccc(CNC(=O)c2cc3ccncc3o2)cc1`, the IC50 on NAMPT (setting [1]) turned out to be 0.0513 µM; with A2780 cells (setting [2]), 0.074 µM. Take `O=C(NCc1ccc(S(=O)(=O)c2ccccc2CN2CCOCC2)cc1)c1cnc2[nH]ncc2c1`: the IC50 was determined as 0.0694 µM at NAMPT (setting [1]) and 0.0465 µM in the test on A2780 cells (setting [2]). Take `O=C(NCc1ccc(S(=O)(=O)c2ccccc2CN2CCOCC2)cc1)c1cnc2nccn2c1`: the results for the IC50 on NAMPT (setting [1]) and in the test on A2780 cells (setting [2]) were 0.0145 µM and 0.1 to 1 µM, respectively. Take `O=C(NCc1ccc(S(=O)(=O)c2ccccc2OC(F)(F)F)cc1)c1cc2ccncc2o1`: the IC50 on NAMPT (setting [1]) amounted to 0.0086 µM; in the test with A2780 cells (setting [2]), 0.0146 µM. Regarding `O=C(NCc1ccc(S(=O)(=O)c2ccccc2C(F)(F)F)cc1)c1cnc2nccn2c1`, the 50% inhibitory concentration (IC50) was 0.01 µM on NAMPT (setting [1]) and 0.1 to 1 µM in the test on A2780 cells (setting [2]). Regarding `O=C(NCc1ccc(S(=O)(=O)c2ccccc2C(F)(F)F)cc1)c1cc2ccncc2o1`, the figures for the IC50 on NAMPT (setting [1]) and in the test on A2780 cells (setting [2]) were 0.0194 µM and 0.0593 µM, respectively. For `COc1cc(-n2cccn2)ccc1S(=O)(=O)c1ccc(CNC(=O)c2cnc3nccn3c2)cc1`, the IC50 with A2780 cells (setting [2]) was 0.0087 µM.

Turning to `CC(C)COc1cccc(S(=O)(=O)c2ccc(CNC(=O)c3cc4ccncc4s3)cc2)c1`, in the test with A2780 cells (setting [2]), the IC50 turned out to be 0.0252 µM. In the case of `COCc1cccc(S(=O)(=O)c2ccc(CNC(=O)c3cnc4nccn4c3)cc2)c1`, in the test with A2780 cells (setting [2]), the IC50 amounted to 0.0138 µM.

On to `O=C(NCc1ccc(S(=O)(=O)c2cccc(-c3ncccn3)c2)cc1)c1cnc2nccn2c1`, for which the IC50 with A2780 cells (setting [2]) was 0.013 µM. Regarding `O=C(NCc1ccc(S(=O)(=O)c2cccc(C(F)(F)F)c2)cc1)c1cnc2[nH]ncc2c1`, the IC50 with A2780 cells (Homo sapiens, A2780 cells, 72 hours, SRB, read-out: A2780 IC50) came to 0.0104 µM. As to `Cc1c(Cl)cccc1S(=O)(=O)c1ccc(CNC(=O)c2cc3ccncc3s2)cc1`, the IC50 came out at 0.0572 µM against NAMPT (Biochem IC50 uM) and 0.0071 µM in the test with A2780 cells (Homo sapiens, A2780, 72 h, read-out: A2780 IC50 uM). Turning to `Cc1c(F)cccc1S(=O)(=O)c1ccc(CNC(=O)c2cc3ccncc3s2)cc1`, the IC50 in the test on A2780 cells (A2780 cells, 72 hours, SRB, read-out: A2780 IC50) came out at 0.0214 µM. With `COc1cc(OC)cc(S(=O)(=O)c2ccc(CNC(=O)c3ccc4nccn4c3)cc2)c1`, in the test on A2780 cells (setting [2]), the IC50 came to 0.0015 µM. On the same count and under the same terms, the same measure for `N#CC1(c2ccc(S(=O)(=O)c3ccc(CNC(=O)c4cnc5nccn5c4)cc3)cc2)CCCC1`: 0.0047 µM; for `O=C(NCc1ccc(S(=O)(=O)c2ccc(C(=O)N3CCCC3)cc2)cc1)c1cc2ccncc2s1`: 0.0017 µM. `O=C(NCc1ccc(S(=O)(=O)c2ccc(C(=O)N3CCCC3)cc2)cc1)c1cnc2[nH]ncc2c1`: the IC50 in the test with A2780 cells (setting [2]) was found to be 0.0093 µM. `O=C(NCc1ccc(S(=O)(=O)c2ccc(-c3ccccc3)cc2)cc1)c1cnc2nccn2c1`: in the test on A2780 cells (setting [2]), the 50% inhibitory concentration (IC50) is 0.0076 µM.

As for `Cc1ccc(F)cc1S(=O)(=O)c1ccc(CNC(=O)c2cnc3nccn3c2)cc1`, the half-maximal inhibitory concentration (IC50) on NAMPT (setting [1]) turned out to be 0.0027 µM; in the test with A2780 cells (setting [2]), 0.0351 µM. On the same counts, the results for `COc1ccc(C(C)(C)C)cc1S(=O)(=O)c1ccc(CNC(=O)c2cnc3[nH]ncc3c2)cc1` are 0.0456 µM and 0.0216 µM. As to `COc1ccc(C(C)(C)C)cc1S(=O)(=O)c1ccc(CNC(=O)c2cnc3nccn3c2)cc1`, the IC50 came to 0.0098 µM at NAMPT (setting [1]) and 0.0077 µM with A2780 cells (setting [2]). Take `COc1ccc(C(C)(C)C)cc1S(=O)(=O)c1ccc(CNC(=O)c2cc3ccncc3o2)cc1`: the values for the IC50 at NAMPT (setting [1]) and in the test on A2780 cells (setting [2]) were 0.0218 µM and 0.0101 µM, respectively. Turning to `Cc1ccc(Cl)c(S(=O)(=O)c2ccc(CNC(=O)c3cc4cnccc4[nH]3)cc2)c1F`, the IC50 was determined as 0.0065 µM at NAMPT (setting [1]) and 0.0071 µM in the test on A2780 cells (setting [2]). Turning to `Cc1ccc(Cl)c(S(=O)(=O)c2ccc(CNC(=O)c3cc4ccncc4s3)cc2)c1F`, the IC50 on NAMPT (setting [1]) was 0.0077 µM; in the test with A2780 cells (setting [2]), 0.0068 µM. As to `Cc1cccc(S(=O)(=O)c2ccc(CNC(=O)c3cnc4nccn4c3)cc2)c1F` [N-({4-[(2-fluoro-3-methylbenzene)sulfonyl]phenyl}methyl)imidazo[1,2-a]pyrimidine-6-carboxamide], the IC50 in the test with A2780 cells (setting [2]) turned out to be 0.0215 µM.

For `O=C(NCc1ccc(S(=O)(=O)c2cc(F)cc(F)c2)cc1)c1ccc2nccn2c1` [N-({4-[(3,5-difluorobenzene)sulfonyl]phenyl}methyl)imidazo[1,2-a]pyridine-6-carboxamide], the IC50 in the test on A2780 cells (setting [2]) is 0.0015 µM. In the case of `CCOc1cccc(S(=O)(=O)c2ccc(CNC(=O)c3cc4ccncc4s3)cc2)c1` [N-({4-[(3-ethoxybenzene)sulfonyl]phenyl}methyl)thieno[2,3-c]pyridine-2-carboxamide], the IC50 in the test with A2780 cells (setting [2]) stood at 0.0029 µM. Turning to `O=C(NCc1ccc(S(=O)(=O)c2cccc3cc[nH]c23)cc1)c1cnc2[nH]ncc2c1` [N-{[4-(1H-indole-7-sulfonyl)phenyl]methyl}-1H-pyrazolo[3,4-b]pyridine-5-carboxamide], the IC50 with A2780 cells (setting [2]) was 0.0432 µM. As for `Cn1cc2ccc(S(=O)(=O)c3ccc(CNC(=O)c4cnc5[nH]ncc5c4)cc3)cc2n1` [N-{[4-(2-methyl-2H-indazole-6-sulfonyl)phenyl]methyl}-1H-pyrazolo[3,4-b]pyridine-5-carboxamide], the IC50 with A2780 cells (setting [2]) turned out to be 0.007 µM. Take `O=C(NCc1ccc(S(=O)(=O)N2CCCCC2)cc1)c1cc2cnccc2[nH]1` [N-{[4-(piperidine-1-sulfonyl)phenyl]methyl}-1H-pyrrolo[3,2-c]pyridine-2-carboxamide]: the IC50 with A2780 cells (Homo sapiens, A2780, 72 h, A2780 cells, 72 hours, SRB assay, read-out: A2780 IC50) came out at 0.2 µM. As to `O=C(NCc1ccc(S(=O)(=O)c2cnc3ccccc3c2)cc1)c1cc2ccncc2o1` [N-{[4-(quinoline-3-sulfonyl)phenyl]methyl}furo[2,3-c]pyridine-2-carboxamide], the half-inhibitory concentration (IC50) on NAMPT (setting [1]) came out at 0.0042 µM. As for `O=C(NCc1ccc(S(=O)(=O)c2ccc(C(=O)N3CCCC3)cc2)cc1)c1cc2ccncc2o1` [N-{[4-({4-[(pyrrolidin-1-yl)carbonyl]benzene}sulfonyl)phenyl]methyl}furo[2,3-c]pyridine-2-carboxamide], the IC50 with A2780 cells (setting [2]) was determined as 0.0014 µM.

Turning to “N-({4-[(2,4-dichloro-3-methoxybenzene)sulfonyl]phenyl}methyl)-1H-pyrazolo[3,4-b]pyridine-5-carboxamide”, the IC50 at NAMPT (NAMPT enzymatic reaction, read-out: Biochem IC50) turned out to be 0.02 µM.

The record behind these values is patent US12336981B2, “Compounds and compositions for the inhibition of NAMPT” (Valo Health, Inc., priority 2010, dated 2025).
